In US20230340011A1 (Asteroid Therapeutics, priority 2022, published 2023) one finds EC50 and IC50 data, which are given here for 15 molecules.

One test addresses LXRβ (Homo sapiens (Human), UniProt P55055). The experiment in a line: In vitro assay LXRβ: PathHunter NHR CHO cells, LXRβ / Steroid Receptor Co-activator Peptide enzyme fragment complementation. It counts as cell-based. The settings on record: PathHunter NHR CHO cells, full-length human LXRβ and SRCP, chemiluminescent signal; read-out: LXRβ PPI. In outline: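 Enzyme fragment complementation read-out: CHO cells stably expressing ProLink-tagged full-length human LXRβ plus nuclear enzyme acceptor–SRCP fusion, seeded and held overnight at 37° C. Medium with charcoal-dextran filtered serum; final vehicle 1%. Chemiluminescence measured after signal generation.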

A further test addresses SREBP-2 (Homo sapiens (Human), UniProt Q12772). In words: In vitro assay SREBP-2: PathHunter U2OS SREBP-2 Nuclear Translocation Cell Line, U18666A-stimulated. It counts as cell-based. As to conditions: PathHunter U2OS SREBP-2 nuclear translocation cells, U18666A 10 μM, overnight (16 hours).

SMILES strings stand for the structures. Bounds are passed on as bounds.

Sequence of LXRβ (P55055 whole entry, the tested form may be a part): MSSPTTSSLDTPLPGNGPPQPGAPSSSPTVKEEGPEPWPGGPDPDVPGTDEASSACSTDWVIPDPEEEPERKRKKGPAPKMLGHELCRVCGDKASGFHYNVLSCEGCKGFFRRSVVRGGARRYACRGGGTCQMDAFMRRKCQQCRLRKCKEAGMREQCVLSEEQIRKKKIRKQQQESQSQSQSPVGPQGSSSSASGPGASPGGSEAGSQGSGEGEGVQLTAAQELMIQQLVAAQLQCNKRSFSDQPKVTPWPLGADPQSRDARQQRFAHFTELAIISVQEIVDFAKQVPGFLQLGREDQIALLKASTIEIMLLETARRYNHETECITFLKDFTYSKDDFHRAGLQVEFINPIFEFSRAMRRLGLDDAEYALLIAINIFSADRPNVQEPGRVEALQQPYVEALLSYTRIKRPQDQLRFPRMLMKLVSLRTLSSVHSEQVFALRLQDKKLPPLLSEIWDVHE

In the case of `COc1cccc(CC[C@@H](C)[C@H]2CC[C@H]3[C@@H]4CC=C5C[C@@H](O)CC[C@]5(C)[C@H]4CC[C@]23C)n1` [Example 168, (3S,8S,9S,10R,13R,14S,17R)-17-((R)-4-(6-methoxypyridin-2-yl)butan-2-yl)-10,13-dim ethyl-2,3,4,7,8,9,10,11,12,13,14,15,16,17-tetradecahydro-1H-cyclopenta[a]phenanthren-3-ol], the EC50 on LXRβ is above 10000 nM. For the same molecule, the IC50 on SREBP-2 fell in the range of 250 to 1000 nM.

As for `C[C@H](CCc1cncnc1)[C@H]1CC[C@H]2[C@@H]3CC=C4C[C@@H](O)CC[C@]4(C)[C@H]3CC[C@]12C` [Example 171, (3S,8S,9S,10R,13R,14S,17R)-10,13-dimethyl-17-((R)-4-(pyrimidin-5-yl)butan-2-yl)-2,3,4,7,8,9,10,11,12,13,14,15,16,17-tetradecahydro-1H-cyclopenta[a]phenanthren-3-ol], the EC50 at LXRβ is above 10000 nM. The molecule also displayed an IC50 at SREBP-2 below 250 nM.

Turning to `C[C@H](CCc1nccs1)[C@H]1CC[C@H]2[C@@H]3CC=C4C[C@@H](O)CC[C@]4(C)[C@H]3CC[C@]12C` [Example 172, (1R,3aS,3bS,7S,9aR,9bS,11aR)-9a,11a-dimethyl-1-[(2R)-4-(1,3-thiazol-2-yl)butan-2-yl]-1H,2H,3H,3aH,3bH,4H,6H,7H,8H,9H,9aH,9bH,10H,11H,11aH-cyclopenta[a]phenanthren-7-ol], the EC50 at LXRβ lay within 1000 to 10000 nM. This molecule also registered an IC50 against SREBP-2 of 250 to 1000 nM.

Turning to `C[C@H](CCc1cncs1)[C@H]1CC[C@H]2[C@@H]3CC=C4C[C@@H](O)CC[C@]4(C)[C@H]3CC[C@]12C` [Example 173, (3S,8S,9S,10R,13R,14S,17R)-10,13-dimethyl-17-((R)-4-(thiazol-5-yl)butan-2-yl)-2,3,4,7,8,9,10,11,12,13,14,15,16,17-tetradecahydro-1H-cyclopenta[a]phenanthren-3-ol], the EC50 on LXRβ was above 10000 nM. In addition, the IC50 on SREBP-2 is 250 to 1000 nM.

As to `C[C@H](CCc1ncns1)[C@H]1CC[C@H]2[C@@H]3CC=C4C[C@@H](O)CC[C@]4(C)[C@H]3CC[C@]12C` [Example 174, (1R,3aS,3bS,7S,9aR,9bS,11aR)-9a,11a-dimethyl-1-[(2R)-4-(1,2,4-thiadiazol-5-yl)butan-2-yl]-1H,2H,3H,3aH,3bH,4H,6H,7H,8H,9H,9aH,9bH,10H,11H,11aH-cyclopenta[a]phenanthren-7-ol], the EC50 at LXRβ is 250 to 1000 nM. The molecule also registered an IC50 at SREBP-2 of 250 to 1000 nM.

For the molecule `C[C@H](CCc1cscn1)[C@H]1CC[C@H]2[C@@H]3CC=C4C[C@@H](O)CC[C@]4(C)[C@H]3CC[C@]12C` [Example 175, (1R,3aS,3bS,7S,9aR,9bS,11aR)-9a,11a-dimethyl-1-[(2R)-4-(1,3-thiazol-4-yl)butan-2-yl]-1H,2H,3H,3aH,3bH,4H,6H,7H,8H,9H,9aH,9bH,10H,11H,11aH-cyclopenta[a]phenanthren-7-ol], the EC50 at LXRβ fell in the range of 1000 to 10000 nM. Also, the IC50 against SREBP-2 was below 250 nM.

For `C[C@H](CCc1cnsc1)[C@H]1CC[C@H]2[C@@H]3CC=C4C[C@@H](O)CC[C@]4(C)[C@H]3CC[C@]12C` [Example 176, (3S,8S,9S,10R,13R,14S,17R)-17-((R)-4-(isothiazol-4-yl)butan-2-yl)-10,13-dimethyl-2,3,4,7,8,9,10,11,12,13,14,15,16,17-tetradecahydro-1H-cyclopenta[a]phenanthren-3-ol], the EC50 on LXRβ is above 10000 nM. The molecule further gave an IC50 at SREBP-2 of 250 to 1000 nM.

Turning to `C[C@H](CCc1ccc2ccccc2n1)[C@H]1CC[C@H]2[C@@H]3CC=C4C[C@@H](O)CC[C@]4(C)[C@H]3CC[C@]12C` [Example 178, (3S,8S,9S,10R,13R,14S,17R)-10,13-dimethyl-17-((R)-4-(quinolin-2-yl)butan-2-yl)-2,3,4,7,8,9,10,11,12,13,14,15,16,17-tetradecahydro-1H-cyclopenta[a]phenanthren-3-ol], the EC50 on LXRβ is above 10000 nM. This molecule also yielded an IC50 on SREBP-2 of 250 to 1000 nM.

Take `C[C@H](COc1ccccn1)[C@H]1CC[C@H]2[C@@H]3CC=C4C[C@@H](O)CC[C@]4(C)[C@H]3CC[C@]12C` [Example 179, (3S,8S,9S,10R,13S,14S,17R)-10,13-dimethyl-17-((S)-1-(pyridin-2-yloxy)propan-2-yl)-2,3,4,7,8,9,10,11,12,13,14,15,16,17-tetradecahydro-1H-cyclopenta[a]phenanthren-3-ol]: the EC50 on LXRβ was above 10000 nM. In addition, on SREBP-2, the IC50 was below 250 nM.

Consider `C[C@H](COc1cccnc1)[C@H]1CC[C@H]2[C@@H]3CC=C4C[C@@H](O)CC[C@]4(C)[C@H]3CC[C@]12C` [Example 180, (3S,8S,9S,10R,13S,14S,17R)-10,13-dimethyl-17-((S)-1-(pyridin-3-yloxy)propan-2-yl)-2,3,4,7,8,9,10,11,12,13,14,15,16,17-tetradecahydro-1H-cyclopenta[a]phenanthren-3-ol], for which the EC50 on LXRβ is above 10000 nM. The molecule also yielded an IC50 against SREBP-2 below 250 nM.

In the case of `C[C@H](COc1ccncc1)[C@H]1CC[C@H]2[C@@H]3CC=C4C[C@@H](O)CC[C@]4(C)[C@H]3CC[C@]12C` [Example 181, (8S,9S,10R,13S,14S,17R)-10,13-dimethyl-17-((S)-1-(pyridin-4-yloxy)propan-2-yl)-2,3,4,7,8,9,10,11,12,13,14,15,16,17-tetradecahydro-1H-cyclopenta[a]phenanthren-3-ol], the EC50 at LXRβ was above 10000 nM. At SREBP-2, the IC50 fell in the range of 250 to 1000 nM.

On to `C[C@H](COc1ccccc1)[C@H]1CC[C@H]2[C@@H]3CC=C4C[C@@H](O)CC[C@]4(C)[C@H]3CC[C@]12C` [Example 182, (1R,3aS,3bS,7S,9aR,9bS,11aS)-9a,11a-dimethyl-1-[(2S)-1-phenoxypropan-2-yl]-1H,2H,3H,3aH,3bH,4H,6H,7H,8H,9H,9aH,9bH,10H,11H,11aH-cyclopenta[a]phenanthren-7-ol], for which, at LXRβ, the EC50 was above 10000 nM. The same molecule yielded an IC50 on SREBP-2 of 250 to 1000 nM.

Regarding `C[C@H](CCc1ccns1)[C@H]1CC[C@H]2[C@@H]3CC=C4C[C@@H](O)CC[C@]4(C)[C@H]3CC[C@]12C` [Example 183, (3S,8S,9S,10R,13R,14S,17R)-17-((R)-4-(isothiazol-5-yl)butan-2-yl)-10,13-dimethyl-2,3,4,7,8,9,10,11,12,13,14,15,16,17-tetradecahydro-1H-cyclopenta[a]phenanthren-3-ol], the EC50 on LXRβ is above 10000 nM. Besides, on SREBP-2, the IC50 lay within 250 to 1000 nM.

On to `C[C@H](CCc1ncccc1Cl)[C@H]1CC[C@H]2[C@@H]3CC=C4C[C@@H](O)CC[C@]4(C)[C@H]3CC[C@]12C` [Example 184, bis((1R,3aS,3bS,7S,9aR,9bS,11aR)-1-[(2R)-4-(3-chloropyridin-2-yl)butan-2-yl]-9a,11a-dimethyl-1H,2H,3H,3aH,3bH,4H,6H,7H,8H,9H,9aH,9bH,10H,11H,11aH-cyclopenta[a]phenanthren-7-ol)], for which the EC50 on LXRβ was in the range of 1000 to 10000 nM. This molecule also displayed an IC50 on SREBP-2 below 250 nM.

For `C[C@H](CCc1ncccc1C(F)(F)F)[C@H]1CC[C@H]2[C@@H]3CC=C4C[C@@H](O)CC[C@]4(C)[C@H]3CC[C@]12C` [Example 185, (1R,3aS,3bS,7S,9aR,9bS,11aR)-9a,11a-dimethyl-1-[(2R)-4-[3-(trifluoromethyl)pyridin-2-yl]butan-2-yl]-1H,2H,3H,3aH,3bH,4H,6H,7H,8H,9H,9aH,9bH,10H,11H, 11 aH-cyclopenta[a]phenanthren-7-ol], the EC50 at LXRβ fell in the range of 1000 to 10000 nM. On SREBP-2, this molecule yielded an IC50 of 250 to 1000 nM.

In general, IC50 refers to the point on the concentration scale where inhibition reaches its midpoint. The low end stands for higher potency, the high end for lower potency.
